Assay results as given in ChEMBL document CHEMBL2429798, “Antioxidant effectiveness generated by one or two phenolic hydroxyl groups in coumarin-substituted dihydropyrazoles” (Eur J Med Chem, 2013).
Activity calls are given as the source filed them. No cut-off for these calls is given here.

Assays:
Format in all cases: functional
[1] = Antioxidant activity assessed as ABTS radical scavenging activity at 5 uM
[2] = Antioxidant activity assessed as time required to inhibit AAPH-induced oxidation of DNA by TBARS assay
[3] = Antioxidant activity assessed as inhibition of hydroxyl radical-induced oxidation of DNA at 0.2 mM after 30 mins by TBARS assay relative to control
[4] = Antioxidant activity assessed as galvinoxyl radical scavenging activity at 15 uM
[5] = system: Radical scavenging activity; experiment: Antioxidant activity assessed as DPPH radical scavenging activity at 10 uM
[6] = Antioxidant activity assessed as inhibition of Cu2+/GSH-induced oxidation of DNA at 0.2 mM measured every 30 mins by TBARS assay
[7] = Antioxidant activity assessed as inhibition of AAPH-induced oxidation of DNA at 1 to 400 uM measured every 2 hrs by TBARS assay

Structure (SMILES)	K [1] [M⁻¹ s⁻¹]	TIME [2] [h]	inhibition [3] [%]	K [4] [M⁻¹ s⁻¹]	K [5] [M⁻¹ s⁻¹]	inhibition [6]	inhibition [7]
O=c1oc2ccccc2cc1C1=NN(c2ccccc2)C(c2ccccc2O)C1 (stereo not drawn)	7440	0.0192	44.2	4350	540		
O=c1oc2ccccc2cc1C1=NN(c2ccccc2)C(c2ccc(O)c(O)c2)C1 (stereo not drawn)	12900	0.0327	43.4	6920	8830	Active	
COc1ccc(C2CC(c3cc4ccccc4oc3=O)=NN2c2ccccc2)cc1 (stereo not drawn)			75.3			Active	inactive
COc1cc(C2CC(c3cc4ccccc4oc3=O)=NN2c2ccccc2)ccc1O (stereo not drawn)	5990	0.0313	53.9	6740	2540		
O=c1oc2ccccc2cc1C1=NN(c2ccccc2)C(c2ccc(O)cc2)C1 (stereo not drawn)	11200	0.0173	81.1	5820	2440		
O=c1oc2ccccc2cc1C1=NN(c2ccccc2)C(c2ccc(O)cc2O)C1 (stereo not drawn)	24600	0.0343	35.5	7900	3720	Active	
O=c1oc2ccccc2cc1C1=NN(c2ccccc2)C(c2cccc(O)c2)C1 (stereo not drawn)	4310	0.016	66.4	7230	700		
O=c1oc2ccccc2cc1C1=NN(c2ccccc2)C(c2ccccc2)C1 (stereo not drawn)			67.8			Active	inactive
